Results as given in patent US20250255847A1, “[…]s: Novel Drugs for Triple Negative Breast Cancer” (SIMMARON RSEARCH INC, priority 2024, published 2025).

Tested on: MDA-MB-468 TNBC cells
Experiment: LDH release cytotoxicity assay in MDA-MB-468 cells
Format: cell-based, human
Settings: 48 hrs; for EC50: Homo sapiens, MDA-MB-468, LDH release, read-out: CT50 (half-response of cytotoxicity)
Experimental: FIG. 11 illustrates an embodiment of the present invention and illustrates SIM-1 and SIM-2 induced apoptosis in MDA-MB-468 TNBC cells, but not HMEC control cells. MDA-MB-468 cells were treated with increasing doses of (A) SIM-1 and (B) SIM-2 for 48 hrs followed by lactate dehydrogenase (LDH) release assay in the supernatants. The result was offset with cell-bound LDH and presented as a percent of DMSO control as discussed under method section. Half-maximal cytotoxicity or CT50 analyses were performed plotting maximum response as an index of increasing doses of (C) SIM-1 and (D) SIM-2. AnnexinV (green) and propidium iodide (red) dual-labeling were performed to evaluate apoptotic response in MDA-MB-468 cells once treated with increasing doses of (E) SIM-1 and (F) SIM-2 for 24 hrs. Nuclei were stained with DAPI. TUNEL assay was performed in MDA-MB-468 cells after treatment with 25 nM of (G) SIM-1. Brown-colored TUNEL bodies were visualized at cresyl violet-stained blue nuclei. (H) The number of TUNEL bodies were counted as a percent of 100 cresyl violet-stained blue cells. Ten independent images were counted for the quantification study. Similarly, SIM-2 was assessed for (I) TUNEL and (J) subsequent quantification analyses. One-way ANOVA was performed to test the significance of mean between groups at **p<0.01 and ****p<0.0001. (K) LDH release assay was performed in non-tumor origin human mammary epithelial cells (HMEC) once treated with increasing doses of SIM-1 and SIM-2 for 48 hrs. Ns=no significance. (L) Annexin V (green) and propidium iodide (red) staining was performed in 25 nM SIM-1- and SIM-2-treated HMEC cells. Nuclei were stained with DAPI. Results are confirmed after three different experiments.
LDH Assay. LDH Assay was performed as per manufacturer's instructions (Cat #: 2570393; Vendor: Thermo Fisher Scientific). MDA-MB-468 and HMEC cells were treated with SIMPYRA-1 and SIMPYRA-2 at doses of 2 nM, 5 nM, […] 25 nM. Each dose was measured in triplicates. After 48 hours of incubation at 37° C., 50 μL of soup from each well was harvested and transferred into a new 96 well plate. Each well was treated with 50 μL of reaction mix (Substrate Mixture+deionized water+Assay Buffer). The reaction was stopped with 50 μL of Stop Solution. The plate was read at 490 nm (background at 680 nm).
This example provides a representative experiment that studies if SIM-1 and SIM-2 promoted the death of TNBC cells. The following experiments were adopted to confirm the apoptosis of TNBC cells. […] During apoptosis, phosphatidyl serine of the plasma membrane flips from the inner to the outer membrane which can be detected by Annexin V labeling, whereas PI stains the nucleus of a cell with compromised integrity of the plasma membrane. […]

Compound | concentration of maximum cell death (LDH release) | EC50
CCOC(=O)c1c(NC(C)=O)sc2c(Cl)c(/C=N/O)ccc12 [SIM-2, ethyl 2-acetamido-7-chloro-6-(hydroxyiminomethyl)-1-benzothiophene-3-carboxylate] | 20 nM | 18.3 nM
O=C(O)CCC(=O)NCc1csc2ccc(Cl)cc12 [SIM-1, 4-[(5-chloro-1-benzothiophen-3-yl)methylamino]-4-oxobutanoic acid] | 20 nM | 20.8 nM
